From PubChem BioAssay AID2060609 (Molecular Pharmacology Branch, DTP, NCI, 2025)
“And” between values parts separate entries of the source, which are not always exact repeats. Identical values can stand only once.

Tested on: 855422-203-R-J1-PDC complex spheroids, viability
Experiment: Anticancer human tumor 855422-203-R-J1-PDC patient-derived bladder carcinoma cell line growth inhibition [CLK]
Details: for viability, T/C: stronger effect = lower value
How it was run: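 Patient-derived tumor cells grown as complex spheroids with HUVEC endothelial cells and mesenchymal stem cells, treated with drug combinations. Concentrations descend in half-log steps from near clinical Cmax, or from 10 microM if Cmax unknown.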

[1] = curve of first compound, second compound 0.0316 µM
[2] = curve of first compound, second compound 0.1 µM
[3] = curve of first compound, second compound 0.316 µM
[4] = curve of first compound, second compound 1 µM
[5] = curve of first compound, second compound 3.16 µM
[6] = curve of first compound, second compound 10 µM
[7] = second compound 0.0316 µM, first compound 0.0316 µM
[8] = second compound 0.0316 µM, first compound 0.1 µM
[9] = second compound 0.0316 µM, first compound 0.316 µM
[10] = second compound 0.0316 µM, first compound 1 µM
[11] = second compound 0.0316 µM, first compound 3.16 µM
[12] = second compound 0.0316 µM, first compound 10 µM
[13] = second compound 0.1 µM, first compound 0.0316 µM
[14] = second compound 0.1 µM, first compound 0.1 µM
[15] = second compound 0.1 µM, first compound 0.316 µM
[16] = second compound 0.1 µM, first compound 1 µM
[17] = second compound 0.1 µM, first compound 3.16 µM
[18] = second compound 0.1 µM, first compound 10 µM
[19] = second compound 0.316 µM, first compound 0.0316 µM
[20] = second compound 0.316 µM, first compound 0.1 µM
[21] = second compound 0.316 µM, first compound 0.316 µM
[22] = second compound 0.316 µM, first compound 1 µM
[23] = second compound 0.316 µM, first compound 3.16 µM
[24] = second compound 0.316 µM, first compound 10 µM
[25] = second compound 1 µM, first compound 0.0316 µM
[26] = second compound 1 µM, first compound 0.1 µM
[27] = second compound 1 µM, first compound 0.316 µM
[28] = second compound 1 µM, first compound 1 µM
[29] = second compound 1 µM, first compound 3.16 µM
[30] = second compound 1 µM, first compound 10 µM
[31] = second compound 3.16 µM, first compound 0.0316 µM
[32] = second compound 3.16 µM, first compound 0.1 µM
[33] = second compound 3.16 µM, first compound 0.316 µM
[34] = second compound 3.16 µM, first compound 1 µM
[35] = second compound 3.16 µM, first compound 3.16 µM
[36] = second compound 3.16 µM, first compound 10 µM
[37] = second compound 10 µM, first compound 0.0316 µM
[38] = second compound 10 µM, first compound 0.1 µM
[39] = second compound 10 µM, first compound 0.316 µM
[40] = second compound 10 µM, first compound 1 µM
[41] = second compound 10 µM, first compound 3.16 µM
[42] = second compound 10 µM, first compound 10 µM
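Further: spheroids exposed to drugs for seven days before readout.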
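Wherever viability, T/C is given: 100% = DMSO vehicle control wells.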

COc1ccc([C@@H](O)c2cc(-c3ncnc4cc(N5CCOCC5)ccc34)c(F)cc2Cl)nn1
viability, T/C (compound 0.0316 µM): 95.2% and 115%
viability, T/C (compound 0.1 µM): 98.5% and 95.4%
viability, T/C (compound 0.316 µM): 105% and 107%
viability, T/C (compound 1 µM): 103% and 85.6%
viability, T/C (compound 3.16 µM): 64.8% and 64.9%
viability, T/C (compound 10 µM): 35.1% and 26.4%
IC50 (curve of compound): 5.61 µM and 4.9 µM

CC(Nc1ccc2c(c1)OCCn1cc(N3C(=O)OCC3C(F)F)nc1-2)C(N)=O (centres undefined) + CN1CCN(c2cc(C(=O)Nc3cc4cc(-c5cnn(C)c5)ccc4cn3)ccn2)CC1
IC50 [1]: 0.28 µM
IC50 [2]: 0.242 µM
IC50 [3]: < 0.0316 µM
IC50 [4]: < 0.0316 µM
IC50 [5]: < 0.0316 µM
IC50 [6]: < 0.0316 µM
viability, T/C [7]: 88.2%
viability, T/C [8]: 66.4%
viability, T/C [9]: 46.1%
viability, T/C [10]: 35.4%
viability, T/C [11]: 26.4%
viability, T/C [12]: 15.5%
viability, T/C [13]: 72.1%
viability, T/C [14]: 69.4%
viability, T/C [15]: 40.8%
viability, T/C [16]: 30.4%
viability, T/C [17]: 20.1%
viability, T/C [18]: 13.7%
viability, T/C [19]: 7.06%
viability, T/C [20]: 6.03%
viability, T/C [21]: 4.86%
viability, T/C [22]: 2.74%
viability, T/C [23]: 2.03%
viability, T/C [24]: 0.75%
viability, T/C [25]: 0.18%
viability, T/C [26]: 0.12%
viability, T/C [27]: 0.13%
viability, T/C [28]: 0.11%
viability, T/C [29]: 0.07%
viability, T/C [30]: 0.06%
viability, T/C [31]: 0.43%
viability, T/C [32]: 0.67%
viability, T/C [33]: 0.28%
viability, T/C [34]: 0.23%
viability, T/C [35]: 0.24%
viability, T/C [36]: 0.18%
viability, T/C [37]: 0.28%
viability, T/C [38]: 0.21%
viability, T/C [39]: 0.23%
viability, T/C [40]: 0.3%
viability, T/C [41]: 0.29%
viability, T/C [42]: 0.26%

COc1ccc([C@@H](O)c2cc(-c3ncnc4cc(N5CCOCC5)ccc34)c(F)cc2Cl)nn1 + CN1CCN(c2cc(C(=O)Nc3cc4cc(-c5cnn(C)c5)ccc4cn3)ccn2)CC1
IC50 [1]: 5.35 µM
IC50 [2]: 5.05 µM
IC50 [3]: < 0.0316 µM
IC50 [4]: < 0.0316 µM
IC50 [5]: < 0.0316 µM
IC50 [6]: < 0.0316 µM
viability, T/C [7]: 104%
viability, T/C [8]: 118%
viability, T/C [9]: 91.3%
viability, T/C [10]: 94%
viability, T/C [11]: 66%
viability, T/C [12]: 29.9%
viability, T/C [13]: 84.7%
viability, T/C [14]: 96.1%
viability, T/C [15]: 89.2%
viability, T/C [16]: 86%
viability, T/C [17]: 64.6%
viability, T/C [18]: 28.7%
viability, T/C [19]: 6.51%
viability, T/C [20]: 8.74%
viability, T/C [21]: 5.23%
viability, T/C [22]: 4.62%
viability, T/C [23]: 5.93%
viability, T/C [24]: 5.44%
viability, T/C [25]: 0.14%
viability, T/C [26]: 0.19%
viability, T/C [27]: 0.74%
viability, T/C [28]: 0.11%
viability, T/C [29]: 2.55%
viability, T/C [30]: 0.09%
viability, T/C [31]: 1.7%
viability, T/C [32]: 0.33%
viability, T/C [33]: 1.52%
viability, T/C [34]: 0.2%
viability, T/C [35]: 0.33%
viability, T/C [36]: 0.13%
viability, T/C [37]: 0.6%
viability, T/C [38]: 0.27%
viability, T/C [39]: 0.24%
viability, T/C [40]: 0.24%
viability, T/C [41]: 0.26%
viability, T/C [42]: 0.19%

CC1(C)CCC(CN2CCN(c3ccc(C(=O)NS(=O)(=O)c4ccc(NCC5CCOCC5)c([N+](=O)[O-])c4)c(Oc4cnc5[nH]ccc5c4)c3)CC2)=C(c2ccc(Cl)cc2)C1
viability, T/C (compound 0.0316 µM): 107% and 106%
viability, T/C (compound 0.1 µM): 90.2% and 119%
viability, T/C (compound 0.316 µM): 117% and 124%
viability, T/C (compound 1 µM): 103% and 118%
viability, T/C (compound 3.16 µM): 159% and 150%
viability, T/C (compound 10 µM): 1.83% and 3.19%
IC50 (curve of compound): 6.14 µM and 6.39 µM

COc1c(OCCCN2CCOCC2)ccc2c3n(c(=NC(=O)c4cnc(N)nc4)nc12)CCN3 + CNC(=O)c1ccc(Nc2nc(OC3CCCC3)c3c(-c4ccc5nc(C)oc5c4)c[nH]c3n2)c(OC)c1
IC50 [1]: 0.0142 µM
IC50 [2]: 0.0062 µM
IC50 [3]: < 0.00316 µM
IC50 [4]: < 0.00316 µM
IC50 [5]: < 0.00316 µM
IC50 [6]: < 0.00316 µM
viability, T/C (second compound 0.0316 µM, first compound 0.00316 µM): 84.2%
viability, T/C (second compound 0.0316 µM, first compound 0.01 µM): 58.8%
viability, T/C [7]: 29.8%
viability, T/C [8]: 10.1%
viability, T/C [9]: 4.15%
viability, T/C [10]: 1.68%
viability, T/C (second compound 0.1 µM, first compound 0.00316 µM): 52%
viability, T/C (second compound 0.1 µM, first compound 0.01 µM): 49.5%
viability, T/C [13]: 25.3%
viability, T/C [14]: 9.48%
viability, T/C [15]: 3.91%
viability, T/C [16]: 2.07%
viability, T/C (second compound 0.316 µM, first compound 0.00316 µM): 17.3%
viability, T/C (second compound 0.316 µM, first compound 0.01 µM): 18.5%
viability, T/C [19]: 8.61%
viability, T/C [20]: 7.71%
viability, T/C [21]: 3.19%
viability, T/C [22]: 1.46%
viability, T/C (second compound 1 µM, first compound 0.00316 µM): 19.4%
viability, T/C (second compound 1 µM, first compound 0.01 µM): 16.5%
viability, T/C [25]: 7.5%
viability, T/C [26]: 3.51%
viability, T/C [27]: 7.67%
viability, T/C [28]: 1.54%
viability, T/C (second compound 3.16 µM, first compound 0.00316 µM): 18.8%
viability, T/C (second compound 3.16 µM, first compound 0.01 µM): 14.2%
viability, T/C [31]: 10.1%
viability, T/C [32]: 7.42%
viability, T/C [33]: 2.07%
viability, T/C [34]: 1.38%
viability, T/C (second compound 10 µM, first compound 0.00316 µM): 16.3%
viability, T/C (second compound 10 µM, first compound 0.01 µM): 11.2%
viability, T/C [37]: 6.12%
viability, T/C [38]: 4.26%
viability, T/C [39]: 3.27%
viability, T/C [40]: 1.62%

CC(CO)NC(=O)c1cc(-c2ccc(Cl)cc2)nn(-c2cnn(C)c2)c1=O (centres undefined) + CN1CCN(c2cc(C(=O)Nc3cc4cc(-c5cnn(C)c5)ccc4cn3)ccn2)CC1
IC50 [1]: > 10 µM
IC50 [2]: > 10 µM
IC50 [3]: < 0.0316 µM
IC50 [4]: < 0.0316 µM
IC50 [5]: < 0.0316 µM
IC50 [6]: < 0.0316 µM
viability, T/C [7]: 85.4%
viability, T/C [8]: 97.9%
viability, T/C [9]: 95.9%
viability, T/C [10]: 104%
viability, T/C [11]: 101%
viability, T/C [12]: 90.2%
viability, T/C [13]: 72.6%
viability, T/C [14]: 83.2%
viability, T/C [15]: 77.1%
viability, T/C [16]: 93.9%
viability, T/C [17]: 90.5%
viability, T/C [18]: 69.4%
viability, T/C [19]: 8.6%
viability, T/C [20]: 12.4%
viability, T/C [21]: 11.9%
viability, T/C [22]: 12.4%
viability, T/C [23]: 13.4%
viability, T/C [24]: 9.74%
viability, T/C [25]: 0.24%
viability, T/C [26]: 0.3%
viability, T/C [27]: 0.22%
viability, T/C [28]: 0.28%
viability, T/C [29]: 0.25%
viability, T/C [30]: 0.24%
viability, T/C [31]: 2.96%
viability, T/C [32]: 0.65%
viability, T/C [33]: 0.95%
viability, T/C [34]: 0.69%
viability, T/C [35]: 1.1%
viability, T/C [36]: 0.53%
viability, T/C [37]: 0.44%
viability, T/C [38]: 0.45%
viability, T/C [39]: 0.33%
viability, T/C [40]: 1.12%
viability, T/C [41]: 1.09%
viability, T/C [42]: 0.43%

COC1C=CCC(C)C(C)S(=O)(=O)NC(=O)c2ccc3c(c2)N(CC2CCC21)CC1(CCCc2cc(Cl)ccc21)CO3 (centres undefined) + CN1CCN(c2cc(C(=O)Nc3cc4cc(-c5cnn(C)c5)ccc4cn3)ccn2)CC1
IC50 [1]: 5.97 µM
IC50 [2]: 4.81 µM
IC50 [3]: < 0.0316 µM
IC50 [4]: < 0.0316 µM
IC50 [5]: < 0.0316 µM
IC50 [6]: < 0.0316 µM
viability, T/C [7]: 89.7%
viability, T/C [8]: 104%
viability, T/C [9]: 101%
viability, T/C [10]: 105%
viability, T/C [11]: 110%
viability, T/C [12]: 7.64%
viability, T/C [13]: 73.2%
viability, T/C [14]: 79.6%
viability, T/C [15]: 78.4%
viability, T/C [16]: 77.5%
viability, T/C [17]: 74.4%
viability, T/C [18]: 7.3%
viability, T/C [19]: 5.49%
viability, T/C [20]: 8.06%
viability, T/C [21]: 8.27%
viability, T/C [22]: 8.14%
viability, T/C [23]: 9.01%
viability, T/C [24]: 3.13%
viability, T/C [25]: 0.17%
viability, T/C [26]: 0.15%
viability, T/C [27]: 0.14%
viability, T/C [28]: 0.18%
viability, T/C [29]: 0.12%
viability, T/C [30]: 0.64%
viability, T/C [31]: 0.29%
viability, T/C [32]: 0.46%
viability, T/C [33]: 0.42%
viability, T/C [34]: 0.42%
viability, T/C [35]: 0.31%
viability, T/C [36]: 0.15%
viability, T/C [37]: 0.31%
viability, T/C [38]: 0.16%
viability, T/C [39]: 0.31%
viability, T/C [40]: 0.39%
viability, T/C [41]: 0.95%
viability, T/C [42]: 0.32%
